pIC50: −log10 of the molar value.

The experiment has as its target T1, Tyrosine-protein kinase receptor UFO (Homo sapiens, UniProt P30530).
T1 sequence (P30530 whole entry): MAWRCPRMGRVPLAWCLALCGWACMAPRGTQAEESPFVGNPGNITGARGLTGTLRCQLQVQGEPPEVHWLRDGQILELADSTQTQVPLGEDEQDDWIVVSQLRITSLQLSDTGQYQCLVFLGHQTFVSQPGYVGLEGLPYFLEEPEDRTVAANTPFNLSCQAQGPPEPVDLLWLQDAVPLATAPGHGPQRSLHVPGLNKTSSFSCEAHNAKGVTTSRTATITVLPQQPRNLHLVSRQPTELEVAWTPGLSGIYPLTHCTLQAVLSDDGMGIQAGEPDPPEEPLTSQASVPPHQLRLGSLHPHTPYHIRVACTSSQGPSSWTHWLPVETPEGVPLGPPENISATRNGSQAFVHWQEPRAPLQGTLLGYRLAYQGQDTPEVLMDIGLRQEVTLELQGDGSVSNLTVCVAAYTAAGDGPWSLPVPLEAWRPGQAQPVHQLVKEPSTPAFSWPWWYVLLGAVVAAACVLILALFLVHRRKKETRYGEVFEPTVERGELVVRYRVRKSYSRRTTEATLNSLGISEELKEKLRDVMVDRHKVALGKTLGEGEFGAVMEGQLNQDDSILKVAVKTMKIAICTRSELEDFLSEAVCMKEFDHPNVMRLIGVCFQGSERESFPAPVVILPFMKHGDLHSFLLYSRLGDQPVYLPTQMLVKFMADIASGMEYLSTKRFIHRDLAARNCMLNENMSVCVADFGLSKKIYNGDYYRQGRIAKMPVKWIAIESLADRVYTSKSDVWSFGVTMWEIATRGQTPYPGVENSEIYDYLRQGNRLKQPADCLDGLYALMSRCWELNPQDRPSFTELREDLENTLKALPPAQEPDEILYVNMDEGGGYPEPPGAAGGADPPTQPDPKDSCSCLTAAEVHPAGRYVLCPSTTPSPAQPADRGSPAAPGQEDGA
As to the kind of experiment: Inhibition of recombinant human Axl using poly (Glu,Tyr)4:1 as substrate after 60 mins by ELISA. Background: An ELISA detects its analyte on a solid surface through an enzyme-linked reagent.

For `Cn1cc(-c2cnc(Nc3cccc(Cn4nc(-c5cnn(C)c5)ccc4=O)c3)nc2)cn1`, the pIC50 was below 6.00.

In general, pIC50 refers to the IC50 on a negative log10 scale, so that one unit is a factor of ten.

These data come from ChEMBL document CHEMBL3758137 (Eur J Med Chem, 2016).
